17 compounds from patent US9896441B2 (Lycera Corporation, priority 2014, dated 2018) can be followed below.

In this assay the target is T1, RORγ-LBD (Homo sapiens, UniProt P51449).
T1 construct: made in house; host or cells: SF9 cells (baculovirus); used as diluted lysate
T1 sequence (P51449 269-508 limits assumed): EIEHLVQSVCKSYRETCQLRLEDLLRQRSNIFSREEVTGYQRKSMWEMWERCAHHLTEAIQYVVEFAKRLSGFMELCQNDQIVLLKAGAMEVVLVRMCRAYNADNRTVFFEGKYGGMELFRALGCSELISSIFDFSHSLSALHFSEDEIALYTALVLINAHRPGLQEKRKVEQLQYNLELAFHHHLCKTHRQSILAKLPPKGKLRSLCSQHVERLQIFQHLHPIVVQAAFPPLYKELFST
Briefly: RORγ-Ligand Binding Domain (LBD) TR-FRET Assay.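 On TR-FRET Assay Max Response: 665/615 nm signal ratio set to 100 without ursolic acid or test compound.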 It is filed as biochemical. The note with it: for TR-FRET Assay Max Response: maximum response. How it is done: Assay procedures and results are described below.
HIS-tagged RORγ-LBD protein was expressed in SF9 cells using a baculovirus expression system. The lysate was diluted in assay buffer (50 mM Tris pH 7.0, 50 mM KCl, 1 mM EDTA, 0.1 mM DTT, 0.01% BSA) to obtain RORγ-LBD final concentration of ˜3 nM in a 384-well assay plate (need to titrate for each batch of protein).
A stock of biotinylated-LXXLL peptide from coactivator SRC1 (Biotin-[…]) was prepared in assay buffer and added to each well (200 nM final concentration). […] RORγ antagonist ursolic acid was also included at a final concentration of 2 μM. Compounds were diluted in DMSO and further diluted in assay buffer with a final DMSO concentration at 1%.
(TR-FRET usually uses a lanthanide donor and a delayed reading to cut background.)

Setting [1] is: with 2 μM ursolic acid (RORγ antagonist), highest test concentration 10 μM.

The term EC50 denotes the concentration needed to bring the measured effect to its halfway point. Take `O=C(O)CC[C@H]1CN(S(=O)(=O)c2cc(C(F)(F)F)cnc2OCCO)c2cc(/C=C3\CCCOC3)ccc2O1` [Example 95X, (S,E)-3-(6-((dihydro-2H-pyran-3(4H)-ylidene)methyl)-4-((2-(2-hydroxyethoxy)-5-(trifluoromethyl)pyridin-3-yl)sulfonyl)-3,4-dihydro-2H-benzo[b][1,4]oxazin-2-yl)propanoic acid]: where the note is “RORγ-LBD TR-FRET”, the concentration giving a half-maximal response (EC50) fell in the range of 500 to 5000 nM. As to `Cc1noc(C)c1NC(=O)N[C@@H]1Cc2ccc(/C=C/c3c(F)cccc3C(F)(F)F)cc2N(S(=O)(=O)c2cccc(C(F)(F)F)c2)[C@@H]1C` [Example 116L, 1-(3,5-dimethylisoxazol-4-yl)-3-((2R,3R)-7-((E)-2-fluoro-6-(trifluoromethyl)styryl)-2-methyl-1-((3-(trifluoro-methyl)phenyl)sulfonyl)-1,2,3,4-tetrahydroquinolin-3-yl)urea], for the setting “RORγ-LBD TR-FRET assay”, the EC50 is below 500 nM and the “TR-FRET Assay Max Response” value is recorded as “*** (a value in the range of greater than 150 to 200)”.

Consider `C[C@@H]1[C@H](NC(=O)Nc2ccccn2)Cc2ccc(/C=C/c3c(F)cccc3C(F)(F)F)cc2N1S(=O)(=O)c1cccc(C(F)(F)F)c1` [Example 116M, 1-((2R,3R)-7-((E)-2-fluoro-6-(trifluoromethyl)styryl)-2-methyl-1-((3-(trifluoro-methyl)phenyl)sulfonyl)-1,2,3,4-tetrahydroquinolin-3-yl)-3-(pyridin-2-yl)urea], for which, for the setting “RORγ-LBD TR-FRET assay”, the concentration for a half-maximal effect (EC50) lay within 500 to 5000 nM and the “TR-FRET Assay Max Response” value was “*** (a value in the range of greater than 150 to 200)”.

On to `COC(=O)N[C@@H]1Cc2ccc(/C=C(\C)c3c(F)cccc3Cl)cc2N(S(=O)(=O)c2cccc(C(F)(F)F)c2)[C@@H]1C` [Example 143, Methyl ((2R,3R)-7-((E)-2-(2-chloro-6-fluorophenyl)prop-1-en-1-yl)-2-methyl-1-((3-(trifluoromethyl)phenyl)sulfonyl)-1,2,3,4-tetrahydroquinolin-3-yl)carbamate], for which, where the note is “RORγ-LBD TR-FRET assay”, the half-maximal effective concentration (EC50) was below 500 nM and the “TR-FRET Assay Max Response” value is “** (a value in the range of greater than 90 to 150)”. The matching figures for `CNC(=O)N[C@@H]1Cc2ccc(/C=C(\C)c3c(F)cccc3Cl)cc2N(S(=O)(=O)c2cccc(C(F)(F)F)c2)[C@@H]1C` [Example 145, 1-((2R,3R)-7-((E)-2-(2-Chloro-6-fluorophenyl)prop-1-en-1-yl)-2-methyl-1-((3-(trifluoromethyl)phenyl)sulfonyl)-1,2,3,4-tetrahydroquinolin-3-yl)-3-methylurea]: below 500 nM and “** (a value in the range of greater than 90 to 150)”. Turning to `CC(=O)N[C@@H]1Cc2ccc(/C=C(\C)c3c(F)cccc3Cl)cc2N(S(=O)(=O)c2cccc(C(F)(F)F)c2)[C@@H]1C` [Example 148, N-((2R,3R)-7-((E)-2-(2-Chloro-6-fluorophenyl)prop-1-en-1-yl)-2-methyl-1-((3-(trifluoromethyl)phenyl)sulfonyl)-1,2,3,4-tetrahydroquinolin-3-yl)acetamide], where the note is “RORγ-LBD TR-FRET assay”, the EC50 is below 500 nM and the “TR-FRET Assay Max Response” value is recorded as “** (a value in the range of greater than 90 to 150)”. The compound `C/C(=C\c1ccc2c(c1)C[C@@H](C(=O)O)[C@@H](C)N2S(=O)(=O)c1cccc(C(F)(F)F)c1)c1c(F)cccc1Cl` [Example 149, (2R,3R)-6-((E)-2-(2-Chloro-6-fluorophenyl)prop-1-en-1-yl)-2-methyl-1-((3-(trifluoromethyl)phenyl)sulfonyl)-1,2,3,4-tetrahydroquinoline-3-carboxylic acid] displayed an EC50 (RORγ-LBD TR-FRET assay) above 10000 nM. `C/C(=C\c1ccc2c(c1)CC(CC(=O)O)CN2S(=O)(=O)c1cccc(C(F)(F)F)c1)c1c(F)cccc1Cl` (stereo not drawn) [Example 150, (E)-2-(6-(2-(2-Chloro-6-fluorophenyl)prop-1-en-1-yl)-1-((3-(trifluoromethyl)phenyl)sulfonyl)-1,2,3,4-tetrahydroquinolin-3-yl)acetic acid] registered an EC50 (RORγ-LBD TR-FRET assay) above 10000 nM. As to `COc1cc(S(=O)(=O)N2c3cc(OCc4c(F)cccc4Cl)ccc3C[C@@H](CO)[C@H]2C)ccc1F` [Example 151, ((2R,3R)-7-((2-Chloro-6-fluorobenzyl)oxy)-1-((4-fluoro-3-methoxyphenyl)sulfonyl)-2-methyl-1,2,3,4-tetrahydroquinolin-3-yl)methanol], where the note is “RORγ-LBD TR-FRET assay”, the EC50 was below 500 nM and the “TR-FRET Assay Max Response” value is “** (a value in the range of greater than 90 to 150)”. The matching figures for `COC(=O)C(C)(C)C[C@@H]1Cc2ccc(/C=C(\C)c3c(F)cccc3Cl)cc2N(S(=O)(=O)c2ccc(F)c(OC)c2)C1` [Example 154B, methyl (S,E)-3-(7-(2-(2-chloro-6-fluorophenyl)prop-1-en-1-yl)-1-((4-fluoro-3-methoxyphenyl)sulfonyl)-1,2,3,4-tetrahydroquinolin-3-yl)-2,2-dimethylpropanoate]: below 500 nM and “** (a value in the range of greater than 90 to 150)”. The like results for `CCOC(=O)C(C)(C)CC1CC(S(=O)(=O)c2ccc(F)c(OC)c2)c2cc(OCc3c(F)cccc3Cl)ccc2O1` (stereo not drawn) [Example 185, Ethyl 3-(6-((2-chloro-6-fluorobenzyl)oxy)-4-((4-fluoro-3-methoxyphenyl)sulfonyl)chroman-2-yl)-2,2-dimethylpropanoate] were, in that order, below 500 nM and “** (a value in the range of greater than 90 to 150)”. The matching figures for `CCOC(=O)C(C)(C)CC1CC(S(=O)(=O)c2cccc(C(F)(F)F)c2)c2cc(OCc3c(F)cccc3Cl)ccc2O1` (stereo not drawn) [Example 186D, ethyl 3-(6-((2-chloro-6-fluorobenzyl)oxy)-4-((3-(trifluoromethyl)phenyl)-sulfonyl)chroman-2-yl)-2,2-dimethylpropanoate]: below 500 nM and “*** (a value in the range of greater than 150 to 200)”.

Take `COc1cc(S(=O)(=O)C2CC(CC(C)(C)C(=O)O)Oc3ccc(/C=C(\C)c4c(F)cccc4Cl)cc32)ccc1F` (stereo not drawn) [Example 186K, (E)-3-(6-(2-(2-chloro-6-fluorophenyl)prop-1-en-1-yl)-4-((4-fluoro-3-methoxyphenyl)-sulfonyl)chroman-2-yl)-2,2-dimethylpropanoic acid]: for the setting “RORγ-LBD TR-FRET assay”, the EC50 is below 500 nM and the “TR-FRET Assay Max Response” value is given as “*** (a value in the range of greater than 150 to 200)”. In turn, `C/C(=C\c1ccc2c(c1)N(S(=O)(=O)c1cccc(C(F)(F)F)c1)C[C@H](CCCC(=O)O)O2)c1c(F)cccc1Cl` [Example 195G, (S,E)-4-(6-(2-(2-chloro-6-fluorophenyl)prop-1-en-1-yl)-4-((3-(trifluoromethyl)phenyl)-sulfonyl)-3,4-dihydro-2H-benzo[b][1,4]oxazin-2-yl)butanoic acid] came in with an EC50 under setting [1] below 500 nM.

In turn, `COC(=O)CCC[C@H]1CN(S(=O)(=O)c2cccc(C(F)(F)F)c2)c2cc(/C=C(\C)c3c(F)cccc3Cl)ccc2O1` [Example 195H, methyl (S,E)-4-(6-(2-(2-chloro-6-fluorophenyl)prop-1-en-1-yl)-4-((3-(trifluoromethyl)phenyl)-sulfonyl)-3,4-dihydro-2H-benzo[b][1,4]oxazin-2-yl)butanoate] showed an EC50 under setting [1] below 500 nM.

On to `CCOC(=O)C1Cc2ccc(OCc3c(F)cccc3Cl)cc2N(S(=O)(=O)c2cn(CC)nc2Cl)C1` (stereo not drawn) [drawing 1599], for which, under setting [1], the EC50 is below 500 nM. The same measure, in the same setting: the value for `Cc1nn(C(F)F)cc1S(=O)(=O)N1CC(CO)Cc2ccc(OCc3c(F)cccc3Cl)cc21` (stereo not drawn) [drawing 1601] was below 500 nM.
